According to US20110195049A1, “COMPOSITIONS AND METHODS FOR TREATING MULTIPLE SCLEROSIS” (BIOVISTA, INC., priority 2008, published 2011):
Structures can show the parent of a compound that is named as a salt.

Tests used:
[1] = tested on: acute EAE murine model of MS; test: Acute EAE murine model (MOG-induced), clinical score over 35 days; format: in vivo, female C57BL/6J mice
NMDA receptor = details: dose producing the anti-NMDA effect; cited from earlier work
[2] = disturbance of coordination of movement and a sedative effect; cited from earlier work

Structure (SMILES) | activity (average clinical score) compared to the vehicle-only treatment group (1F) ([1]; 1.0 mg/kg IP once daily from study day 0, 35-day study, n = 10) | activity (average clinical score) compared to the vehicle-only treatment group (1F) ([1]; 10.0 mg/kg IP once daily (group 5F), at the end of the study) | activity (average clinical score) compared to the vehicle-only treatment group (1F) ([1]; 10.0 mg/kg IP once daily (group 5F), intermediate time points, days 26 and 27) | ED50 of anti-NMDA effect (NMDA receptor) [mg/kg] | adverse effects at doses producing the anti-NMDA effect [2]
Cc1ccc2c(c1)c1c(n2CCc2ccc(C)nc2)CCN(C)C1 [Dimebon, 2,8-dimethyl-5-(2-(6-methyl-3-pyridyl)ethyl)-2,3,4,5-tetrahydro-1H-pyrido[4,3-b]indole dihydrochloride] | statistically significant | not statistically significant | statistically significant | – | –
NC(CCCP(=O)(O)O)C(=O)O (centres unmarked) [AP5, 2-amino-5-phosphonovaleric acid] | – | – | – | 190 | neurotoxic effects
